The text below walks through data of patent US20230295109A1, “PYRIDINONE COMPOUNDS FOR THE TREATMENT OF AUTOIMMUNE DISEASE” (F. Hoffmann-La Roche AG, priority 2020, published 2023).

The structures appear in SMILES notation.

The series is described as follows: Parallel Artificial Membrane Permeability Assay (PAMPA). The series is classed as in vitro ADME. The note with it: for Membrane Retention / Papp at 4 h: PAMPA; for Membrane Retention: pH 7.40, 4 hours; for Papp at 4 h: pH 7.4, pH 7.40, room temperature, read-out: PAMPA Pe; for PAMPA category: class from Pe and membrane retention. How it is done:
PAMPA (Parallel Artificial Membrane Permeability Assay) is a first-line permeability screen for drug candidates. This assay mimics the transcellular absorption conditions using an artificial phospholipid membrane and generates a permeability value that can be used for compound ranking and optimization as well as input parameters for in silico models to predict intestinal absorption.
Permeation experiments are carried out in hydrophobic PVDF 96-well microtiter filter plates (MultiScreen Filter Plate, Millipore, #MAIPN4550). Each well is coated with PVDF membrane, which is prepared with 5 µL Dodecane (Sigma, D221104) that contains 1% lecithin (Sigma, P3556-1G).
The typical PAMPA experimental protocol is as follows: The donor plate is placed on a Teflon acceptor plate that has been pre-filled with 150 µL of 100 mM PBS buffer (2.6 g KH2PO4 and 18.5 g K2HPO4.3H2O are dissolved in about 1000 mL of ultra-pure water and mixed thoroughly. The pH is adjusted to 7.40 ± 0.05, using either 1 M sodium hydroxide or 1 M hydrochloric acid.) containing 5% DMSO. The filter on the bottom of each acceptor well is filled with 300 µL of 100 mM PBS buffer (2.6 g KH2PO4 and 18.5 g K2HPO4.3H2O are dissolved in about 1000 mL of ultra-pure water, mixed thoroughly. The pH was adjusted to 7.40 ± 0.05, using either 1 M sodium hydroxide or 1 M hydrochloric acid.). The resulting sandwich is incubated at room temperature under constant shaking (300 rpm) for 4 hours. The sandwich is then disassembled. Before incubation, spike 20 µL dosing solution and mix with 250 µL PBS and 130 µL quench solution (acetonitrile) as T0 sample. After incubation, collect 270 µL solutions from acceptor chamber, followed by the addition of 130 µL acetonitrile. Collect 20 µL solution from donor chamber and add 250 µL PBS and 130 µL acetonitrile. The concentration of compound in all samples are determined by LC-MS/MS and the equations for determining the permeability (Pe, 10^-6 cm/s ) are as follows.
VD is the volume of the donor well; VR is the volume of the acceptor well; Area is the active surface area of membrane; Time is the incubation time (14,400 s in this assay); CR and CD are the concentrations of compound in acceptor and donor solutions, respectively, at the completion of the assay; C0 is the concentration of compound in donor solution before incubation.
The main readout of the PAMPA assay is the permeability value Pe expressed in 10^-6 cm/s. Secondary readouts determined are the amounts of compound in the donor and acceptor compartments as well as compound retention in the membrane. Depending on the permeation rate and the membrane retention, compounds are classified as “low” (Pe < 0.2 and membrane retention <20%) or “medium & high” (Pe >= 0.2; or Pe < 0.2 and membrane retention >= 20%). Each sample is measured in triplicate; the standard deviation is determined for the permeation constant Pe.

Regarding `CCc1nc(N2CCN(Cc3cnc(N4CC(C)(N)C4)nc3)CC2)ccc1-c1cc(C)c(=O)n(C)c1` [Example 3, 5-[6-[4-[[2-(3-amino-3-methyl-azetidin-1-yl)pyrimidin-5-yl]methyl]piperazin-1-yl]-2-ethyl-3-pyridyl]-1,3-dimethyl-pyridin-2-one], the “Membrane Retention” value is given as -1.260%; the Papp at 4 h was 0.53 ×10⁻⁶ cm/s; the PAMPA category entry is “medium & high (“medium & high” (Pe >= 0.2; or Pe < 0.2 and membrane retention >= 20%))”.
In the case of `CCc1nc(N2CCN3CCN(c4cnc(N5CC6(CNCCO6)C5)nc4)CC3C2)ccc1-c1cc(C)c(=O)n(C)c1` (stereo not drawn) [Example 19, 5-[2-ethyl-6-[2-[2-(5-oxa-2,8-diazaspiro[3.5]nonan-2-yl)pyrimidin-5-yl]-3,4,6,7,9,9a-hexahydro-1H-pyrazino[1,2-a]pyrazin-8-yl]-3-pyridyl]-1,3-dimethyl-pyridin-2-one], the “Membrane Retention” value was found to be 37.320%; the Papp at 4 h is 0.87 ×10⁻⁶ cm/s; the PAMPA category entry is “medium & high (“medium & high” (Pe >= 0.2; or Pe < 0.2 and membrane retention >= 20%))”.
`CCc1nc(N2CCN(Cc3cnc(N4CCOC[C@@H](N)C4)nc3)CC2)ccc1-c1cc(C)c(=O)n(C)c1` [Example 4, 5-[6-[4-[[2-[(6S)-6-amino-1,4-oxazepan-4-yl]pyrimidin-5-yl]methyl]piperazin-1-yl]-2-ethyl-3-pyridyl]-1,3-dimethyl-pyridin-2-one]: the “Membrane Retention” value amounted to 15.690%; the Papp at 4 h was 0.75 ×10⁻⁶ cm/s; the PAMPA category result is “medium & high (“medium & high” (Pe >= 0.2; or Pe < 0.2 and membrane retention >= 20%))”.
Consider `Cc1cc(-c2ccc(N3CCN(Cc4ccc(N5CCNCC5)cc4)CC3)nc2C(F)F)cn(C)c1=O` [Example 17, 5-[2-(difluoromethyl)-6-[4-[(4-piperazin-1-ylphenyl)methyl]piperazin-1-yl]-3-pyridyl]-1,3-dimethyl-pyridin-2-one], for which the “Membrane Retention” value was 50.950%; the Papp at 4 h is 1.5 ×10⁻⁶ cm/s; the PAMPA category result is “medium & high (“medium & high” (Pe >= 0.2; or Pe < 0.2 and membrane retention >= 20%))”.
Consider `Cc1cc(-c2ccc(N3CCN(Cc4ccc(N5CCNCC5)nc4)CC3)nc2C(C)C)cn(C)c1=O` [Example 11, 5-[2-isopropyl-6-[4-[(6-piperazin-1-yl-3-pyridyl)methyl]piperazin-1-yl]-3-pyridyl]-1,3-dimethyl-pyridin-2-one], for which the “Membrane Retention” value was determined as 24.900%; the Papp at 4 h amounted to 0.6 ×10⁻⁶ cm/s; the PAMPA category entry was “medium & high (“medium & high” (Pe >= 0.2; or Pe < 0.2 and membrane retention >= 20%))”.
As for `CCc1nc(N2CCN(Cc3ccc(N4CC5(CNCCO5)C4)nc3)CC2)ccc1-c1cc(C)c(=O)n(C)c1` [Example 2, 5-[2-ethyl-6-[4-[[6-(5-oxa-2,8-diazaspiro[3.5]nonan-2-yl)-3 pyridyl]methyl]piperazin-1-yl]-3-pyridyl]-1,3-dimethyl-pyridin-2-one], the “Membrane Retention” value was 10.600%; the Papp at 4 h was determined as 0.49 ×10⁻⁶ cm/s; the PAMPA category entry was “medium & high (“medium & high” (Pe >= 0.2; or Pe < 0.2 and membrane retention >= 20%))”.
Consider `Cc1cc(-c2ccc(N3CCN(Cc4ncc(N5CCNCC5)cn4)CC3)nc2C(C)C)cn(C)c1=O` [Example 12, 5-[2-isopropyl-6-[4-[(5-piperazin-1-ylpyrimidin-2-yl)methyl]piperazin-1-yl]-3-pyridyl]-1,3-dimethyl-pyridin-2-one], for which the “Membrane Retention” value was 15.270%; the Papp at 4 h is 0.46 ×10⁻⁶ cm/s; the PAMPA category entry was “medium & high (“medium & high” (Pe >= 0.2; or Pe < 0.2 and membrane retention >= 20%))”.
As for `Cc1cc(-c2ccc(N3CCN(Cc4cnc(N5CC6(CNCCO6)C5)nc4)CC3)nc2C(C)C)cn(C)c1=O` [Example 6, 5-[2-isopropyl-6-[4-[[2-(5-oxa-2,8-diazaspiro[3.5]nonan-2-yl)pyrimidin-5-yl]methyl]piperazin-1-yl]-3-pyridyl]-1,3-dimethyl-pyridin-2-one], the “Membrane Retention” value was found to be 19.190%; the Papp at 4 h is 0.65 ×10⁻⁶ cm/s; the PAMPA category entry is “medium & high (“medium & high” (Pe >= 0.2; or Pe < 0.2 and membrane retention >= 20%))”.
In the case of `Cc1cc(-c2ccc(N3CCC(N4CCNCC4)CC3)nc2C(C)C)cn(C)c1=O` [Example 18, 5-[2-isopropyl-6-(4-piperazin-1-yl-1-piperidyl)-3-pyridyl]-1,3-dimethyl-pyridin-2-one], the “Membrane Retention” value turned out to be 8.650%; the Papp at 4 h was 0.74 ×10⁻⁶ cm/s; the PAMPA category entry is “medium & high (“medium & high” (Pe >= 0.2; or Pe < 0.2 and membrane retention >= 20%))”.
For the molecule `Cc1cc(-c2ccc(N3CCN4CCN(c5ccc(N6CCNCC6)nc5)CC4C3)nc2C(C)C)cn(C)c1=O` (stereo not drawn) [Example 16, 5-[2-isopropyl-6-[8-(6-piperazin-1-yl-3-pyridyl)-3,4,6,7,9,9a-hexahydro-1H-pyrazino[1,2-a]pyrazin-2-yl]-3-pyridyl]-1,3-dimethyl-pyridin-2-one], the “Membrane Retention” value was 30.770%; the Papp at 4 h worked out at 0.24 ×10⁻⁶ cm/s; the PAMPA category entry is “medium & high (“medium & high” (Pe >= 0.2; or Pe < 0.2 and membrane retention >= 20%))”.
Take `Cc1cc(-c2ccc(N3CCN(Cc4ccc(N5CCNCC5)cc4)CC3)nc2C(C)C)cn(C)c1=O` [Example 13, 5-[2-isopropyl-6-[4-[(4-piperazin-1-ylphenyl)methyl]piperazin-1-yl]-3-pyridyl]-1,3-dimethyl-pyridin-2-one]: the “Membrane Retention” value came out at 56.550%; the Papp at 4 h turned out to be 0.46 ×10⁻⁶ cm/s; the PAMPA category result was “medium & high (“medium & high” (Pe >= 0.2; or Pe < 0.2 and membrane retention >= 20%))”.
As for `Cc1cc(-c2ccc(N3CCN(Cc4cccc(N5CCNCC5)c4)CC3)nc2C(C)C)cn(C)c1=O` [Example 14, 5-[2-isopropyl-6-[4-[(3-piperazin-1-ylphenyl)methyl]piperazin-1-yl]-3-pyridyl]-1,3-dimethyl-pyridin-2-one], the “Membrane Retention” value worked out at 38.020%; the Papp at 4 h came to 0.54 ×10⁻⁶ cm/s; the PAMPA category entry was “medium & high (“medium & high” (Pe >= 0.2; or Pe < 0.2 and membrane retention >= 20%))”.
`Cc1cc(-c2ccc(N3CCN(Cc4ccc(N5CCNCC5)cn4)CC3)nc2C(C)C)cn(C)c1=O` [Example 7, 5-[2-isopropyl-6-[4-[(5-piperazin-1-yl-2-pyridyl)methyl]piperazin-1-yl]-3-pyridyl]-1,3-dimethyl-pyridin-2-one]: the “Membrane Retention” value was found to be 2.530%; the Papp at 4 h was found to be 0.74 ×10⁻⁶ cm/s; the PAMPA category entry was “medium & high (“medium & high” (Pe >= 0.2; or Pe < 0.2 and membrane retention >= 20%))”.
With `Cc1cc(-c2ccc(N3CCN(c4ccc5c(n4)CCNC5)CC3)nc2C(C)C)cn(C)c1=O` [Example 15, 5-[2-isopropyl-6-[4-(5,6,7,8-tetrahydro-1,6-naphthyridin-2-yl)piperazin-1-yl]-3-pyridyl]-1,3-dimethyl-pyridin-2-one], the “Membrane Retention” value is given as 27.680%; the Papp at 4 h was found to be 0.23 ×10⁻⁶ cm/s; the PAMPA category result is “medium & high (“medium & high” (Pe >= 0.2; or Pe < 0.2 and membrane retention >= 20%))”.
Turning to `CCc1nc(N2CCN(Cc3ccc(N4CCNCC4)cc3)CC2)ccc1-c1cc(C)c(=O)n(C)c1` [Example 5, 5-[2-ethyl-6-[4-[(4-piperazin-1-ylphenyl)methyl]piperazin-1-yl]-3-pyridyl]-1,3-dimethyl-pyridin-2-one], the “Membrane Retention” value was determined as 18.250%; the Papp at 4 h worked out at 1.5 ×10⁻⁶ cm/s; the PAMPA category result is “medium & high (“medium & high” (Pe >= 0.2; or Pe < 0.2 and membrane retention >= 20%))”.
On to `Cc1cc(-c2ccc(N3CCN(Cc4cnc(N5CC(C)(N)C5)nc4)CC3)nc2C(C)C)cn(C)c1=O` [Example 10, 5-[6-[4-[[2-(3-amino-3-methyl-azetidin-1-yl)pyrimidin-5-yl]methyl]piperazin-1-yl]-2-isopropyl-3-pyridyl]-1,3-dimethyl-pyridin-2-one], for which the “Membrane Retention” value amounted to 7.250%; the Papp at 4 h was found to be 0.6 ×10⁻⁶ cm/s; the PAMPA category result was “medium & high (“medium & high” (Pe >= 0.2; or Pe < 0.2 and membrane retention >= 20%))”.
